Reference: patent publication US9422239B1, “Dual PPAR-δ PPAR-γ agonists” (Auburn University, priority 2013, dated 2016)

How the values were obtained:
PPARγ targets = assay: PPARγ target gene (mRNA) expression in hippocampi by qRT-PCR; format: in vivo, mice; conditions: 1 mg/kg orally, compared to rosiglitazone (ICV) and control
Protocol: Male C57/b16 and leptin deficient (db/db) mice were purchased from Jackson Laboratories (Bar Harbor, Me.). Animals were maintained in 12 hours of dark-light cycle. […] Both drugs were suspended in sterile saline. Four additional groups comprised the control portion of the study and received physiological saline in the place of the drug treatment either orally or by ICV. […] All treatments extended for 2 weeks.
Total RNA was isolated from hippocampi using RNAeasy Lipid Tissue Mini Kit (Qiagen, Valencia, Calif.) and was converted to cDNA (iScript cDNA synthesis kit—Bio Rad, Hercules, Calif.). Real-time PCR was performed in triplicate using a RT2 SYBR Green/Fluorescein fast master mix (SA-Bioscience) and an iCycler real-time PCR thermocycler (Bio-Rad). Gene expression was normalized to β-actin. Relative gene expression was determined by the comparative CT method (30). The data is presented as mean+/−SEM.

PPARγ/δ targets = assay: mRNA analyses of PPARγ/δ targets in 3T3-L1 adipocytes; format: cell-based; conditions: 10 μM
Excerpt: Compound 9 increased the gene expression of PPARγ targets MCAD, HSL, ATGL and adiponectin.

3T3-L1 adipocytes = assay: Lipid accumulation by oil red-o staining; format: cell-based; conditions: 6 days, oil red-o stain
Protocol: 3T3L1 adipocytes were cultured and treated with the novel compounds for a period of 6 days. Lipid accumulation was determined by oil red-o staining, and measured the absorbance spectrophotometrically at a wavelength of 510 nm and standardized to total protein concentrations. Data from lipid accumulation studies were compared to cells treated with rosiglitazone (a full PPARγ agonist).

PPARδ (PDK4-PPRE) = biological target: T1, PPARδ (PDK4-PPRE) (Homo sapiens, UniProt Q03181); assay: PDK4-PPRE luciferase assay in HEK-293 cells; format: cell-based
T1 construct: expressed in transfected cells; host or cells: HEK-293
T1 sequence (Q03181 1-441): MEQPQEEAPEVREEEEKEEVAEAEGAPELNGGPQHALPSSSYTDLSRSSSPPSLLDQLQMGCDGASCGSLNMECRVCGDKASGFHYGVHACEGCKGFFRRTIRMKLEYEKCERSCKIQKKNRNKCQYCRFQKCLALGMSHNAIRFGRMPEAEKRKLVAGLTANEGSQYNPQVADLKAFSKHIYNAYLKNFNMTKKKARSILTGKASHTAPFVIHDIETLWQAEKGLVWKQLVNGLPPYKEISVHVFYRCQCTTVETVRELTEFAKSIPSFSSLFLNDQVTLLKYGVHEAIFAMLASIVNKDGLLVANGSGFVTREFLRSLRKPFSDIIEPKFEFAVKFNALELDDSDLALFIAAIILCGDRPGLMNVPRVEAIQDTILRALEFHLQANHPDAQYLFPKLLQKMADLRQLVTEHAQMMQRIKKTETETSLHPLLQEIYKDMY
T1 sequence (P19793 1-462 partner): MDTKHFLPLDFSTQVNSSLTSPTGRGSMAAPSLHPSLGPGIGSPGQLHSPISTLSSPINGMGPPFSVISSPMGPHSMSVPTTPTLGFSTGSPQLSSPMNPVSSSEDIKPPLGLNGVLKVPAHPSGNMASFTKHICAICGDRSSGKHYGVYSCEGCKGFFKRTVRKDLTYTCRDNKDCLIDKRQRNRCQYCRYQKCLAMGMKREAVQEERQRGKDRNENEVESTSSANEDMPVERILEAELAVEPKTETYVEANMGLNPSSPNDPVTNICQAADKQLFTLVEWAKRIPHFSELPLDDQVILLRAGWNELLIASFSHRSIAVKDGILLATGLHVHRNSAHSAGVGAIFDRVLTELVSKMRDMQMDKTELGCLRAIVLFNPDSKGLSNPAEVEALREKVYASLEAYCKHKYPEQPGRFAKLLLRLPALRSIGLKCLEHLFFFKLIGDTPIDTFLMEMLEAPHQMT
Excerpt: To validate the specificity of the novel compounds towards activation of PPARγ/δ targets, we tested the compounds capacity to bind to select PPARγ/δ Peroxisome Proliferator Response Elements (PPRE). The PPRE are unique sites located in the promoter region where PPARs bind and transcriptionally activate the target genes. AP2-PPRE is the PPARγ target involved in adipocyte growth and differentiation. PDK4-PPRE is a PPARδ target involved in regulating energy metabolism in the cell. These PPREs were inserted into a PGL3 luciferase vectors containing CMV promoters (ADDGENE) using PCR. These vectors were co-transfected with RXR, PPARγ/PPARδ and p-galactosidase vectors into HEK-293 cells using Lipofectamine 2000 (Invitrogen). Relative light units (RLU) were measured using a Glomax Luminometer (Promega). Data were standardized to p-galactosidase activity using ONPG (Promega).

db/db mice = assay: Y maze behavioral test, compound 9; format: in vivo; conditions: oral, 1 mg/kg
Protocol: Groups of mice can be subjected to Y-maze tests and object recognition tests (ORT) to determine the improvement of working and declarative memory. Briefly the Y-maze test involves the novel arm being blocked, so mice are allowed to explore the other two arms for 15 minutes. Appropriate external and internal cues are assigned for each arm. After 15 minute training sessions, the mice are caged in the same room for 4 hours (holding session) followed by the novel arm exploration where mice are allowed to explore the novel arm for […].

- Binding affinity for the PDK4-PPRE (PPARδ (PDK4-PPRE)): strong binding affinity
Compound: Cc1ccc(CNCCCN(Cc2ccc(C(=O)O)cc2)Cc2cc(C(F)(F)F)cc(C(F)(F)F)c2)cc1 [Compound 9]
- Activation of PPARγ targets in hippocampi (mRNA expression) (PPARγ targets): selective activation of PPARγ targets
- Expression of genes associated with lipid accumulation and synthesis (FATP, CD36, DGAT) (PPARγ/δ targets): marginally induced
- Gene expression of PDK4 (PPARγ/δ targets): increased
- Gene expression of PPARγ targets MCAD, HSL, ATGL and adiponectin (PPARγ/δ targets): increased
- Lipid accumulation (3T3-L1 adipocytes): less lipid accumulation
- Lipid accumulation (3T3-L1 adipocytes; listed as compound 9): negligible effects
- Cognition in Y maze behavioral tests (db/db mice): improves cognition
